Experimental data reported in US20070160684A1, “Methods for increasing cancer cell chemosensitivity” (priority 2005, published 2007).

How the values were obtained:
HMGA2/Ku70/Ku80 complex = assay: Co-immunoprecipitation after Dox treatment; type: cell-based
[1] = system: DNA-PKcs pT2609 and pS2056; assay: Western analysis of DNA-PKcs phosphorylation; type: cell-based
Experimental: Dox treatment has been reported to lead to rapid and transient phosphorylation of DNA-PKcs at Thr-2609 (pT2609) and Ser-2056 (pS2056), respectively (Chen 2005). Equal amounts of protein lysates from HeLa and HeLa/HMGA2 cells were treated with 2 μM or 5 μM Dox, then subjected to Western analyses using polyclonal anti-phospho-DNA-PKcs-T2609/S2056 (Dr. David Chen, Univ. of Texas Southwestern Medical Center) and monoclonal anti-DNA-PKcs antibodies (Santa Cruz, Calif.). Control lysates were treated with vehicle only. Untreated and Dox-treated MO59K (DNA-PKcs proficient) and MO59J (DNA-PKcs deficient) cells were used as an additional control to assure antibody specificity.
To confirm that HMGA2 expression is at least in part responsible for sustained DNA-PKcs pT2609 and pS2056 signals following Dox exposure, siRNA was utilized to downregulate endogenous HMGA2 expression in Hs578T cells. siRNA against HMGA2 (si-HMGA2) was described previously (Boo 2005). The sense and antisense were annealed to a working concentration of 20 μM by incubation with annealing buffer (5×: 30 mM HEPES pH 7.4, 100 mM potassium acetate, 2 mM magnesium acetate) at 90° C. for one minute followed by incubation at 37° C. for one hour. The annealed siRNA was stored at −20° C. Transfection of siRNA was performed with GeneEraser (Stratagene, Calif.) according to manufacturer's instruction. Briefly, cells were seeded to a confluency of 50% on the day of transfection. GeneEraser was pre-incubated at room temperature in serum-free medium ten minutes before the addition of siRNA. The GeneEraser/si-HMGA2 solution was then incubated at room temperature for an additional 15 minutes before addition to cells in a serum-containing medium. The cells were allowed to incubate for various time periods without any medium change post-transfection. Control cells were transfected with a scrambled siRNA. Cells were treated with Dox 48 hours after transfection.

ATM phosphorylation = assay: Western analysis of ATM phosphorylation in HeLa and HeLa/HMGA2 cells; type: cell-based; settings: Dox
Experimental: (§1) To ascertain whether HMGA2 effects Dox-induced ATM signaling activation, phosphorylation of ATM Ser1981 and H2AX Ser139 was assayed in the presence and absence of Dox (2 μM in ATM assays, 1 μM in H2AX assays). At various timepoints after Dox treatment, cell lysates were removed and subjected to Western analyses using monoclonal anti-phospho-ATM antibodies (Ser1981), polyclonal anti-ATM antibodies (Santa Cruz Biotechnology, Santa Cruz, Calif.), monoclonal anti-phospho-H2AX antibodies ([…]) (Upstate Cell Signaling), or anti-H2AX antibodies. Control Western analyses were performed using monoclonal anti-actin antibodies. […] HeLa and HeLa/HMGA2 cells
(§2) The effect of HMGA2 on ATM and H2AX phosphorylation in HeLa cells was measured using the protocol described above. […] As for H2AX, results were similar to those observed in Pa-4 cells.

[2] = system: HepG2, Hep3B, and CL48 cells; assay: MTT cell viability assay; type: cell-based; settings: increasing concentrations, 72 hours
Experimental: MTT assays were conducted as described above to assess the effect of HGMA2 expression on the sensitivity of HepG2, Hep3B, and CL48 cells to Dox or cisplatin. […] To exclude the possibility that HMGA2 increases chemosensitization in general, Taxol-induced cell growth inhibition was measured in HeLa and HeLa/HMGA2 cells. Taxol is a microtubule stabilizing agent (Slichenmyer 1991) commonly used as a chemotherapeutic agent for combating breast and ovarian cancers.

H2AX phosphorylation [3] = assay: Western analysis of H2AX phosphorylation in HeLa and HeLa/HMGA2 cells; type: cell-based; settings: Dox
Experimental: as §1, §2

H2AX phosphorylation [4] = assay: Western analysis of H2AX phosphorylation in HS578T and HCC1419 cells; type: cell-based; settings: 2 μM Dox
Experimental: NU7026 (Calbiochem, San Diego, Calif.) was dissolved in DMSO at 5 mM and stored at −20° C. […] Cell lysates were removed and subjected to Western analyses using monoclonal anti-phospho-H2AX (Ser 139) antibodies. Control Western analyses were performed using monoclonal anti-actin antibodies.
Experiments were repeated using HS578T and HCC1419 cells treated with 2 μM rather than 1 μM Dox.

[5] = system: Pa-4 and Pa-4/HMGA2 cells; assay: MTT cell viability assay; type: cell-based; settings: Dox 0-7 μM or irinotecan 0-50 μM
[6] = system: p53 Ser-15 and Chk2 Thr-68 phosphorylation; assay: Western analysis of p53 and Chk2 phosphorylation in MO59J and MO59K cells; type: cell-based
Experimental: To establish the role of DNA-PK in Dox-induced p53 and Chk2 phosphorylation, MO59J (DNA-PKcs-deficient) and MO59K (DNA-PKcs-proficient) cells were treated with Dox, and their p53 and Chk2 phosphorylation profiles were probed.

H2AX phosphorylation [7] = assay: Western analysis of H2AX phosphorylation in U2OS.GK41 cells; type: cell-based; settings: 2 μM Dox, 1 hour and 2 hours, cells expressing ATR-kd
Experimental: For experiments using U2OS.GK41 cells, cells were pre-treated with 1 μg/ml doxycycline for 48 […] to induce expression of ATR-kd. Non-induced control cells were pre-treated with vehicle only. Induced and non-induced cells were then treated with 2 μM Dox. At 1 hour and 2 hours after Dox treatment, cell lysates were removed and subjected to Western analyses using anti-phospho-H2AX or anti-actin antibodies.

[8] = system: HS578T, HCC1419, and CHO cells; assay: MTT cell viability assay; settings: Dox 0 to 2.5 μM
[9] = 10 μM Dox for 30 minutes, HeLa/HMGA2 cells

`COc1cccc2c1C(=O)c1c(O)c3c(c(O)c1C2=O)C[C@@](O)(C(=O)CO)C[C@@H]3O[C@H]1C[C@H](N)[C@H](O)[C@H](C)O1` [Dox, doxorubicin] was tested, and the “DNA-PKcs in the immunocomplexes of Ku80” value (HMGA2/Ku70/Ku80 complex; [9]) was “enriched the amount of DNA-PKcs detected in the immunocomplexes of Ku80”, the “anti-Ku80-immunoprecipitated HMGA2” value (HMGA2/Ku70/Ku80 complex; [9]) was “decrease in anti-Ku80-immunoprecipitated HMGA2” and the “interaction of endogenous HMGA2 with Ku80/Ku70” value (HMGA2/Ku70/Ku80 complex; Dox, Hs578T cells) was “this interaction was disrupted upon Dox-treatment”. The DNA-PKcs phosphorylation signals ([1]; 2 μM or 5 μM Dox, two hours, HeLa/HMGA2 cells) was “Accumulation of DNA-PKcs phosphorylation signals”, the “DNA-PKcs phosphorylation signals, Hs578T versus HCC1419” value ([1]; increasing concentrations of Dox) was “recapitulated in HMGA2-expressing Hs578T breast cancer cells, but not in HMGA2-underexpressing HCC1419 breast cancer cells” and the ATM phosphorylation (ATM phosphorylation; HeLa cells) was “rapid phosphorylation of ATM in HeLa cells”. The ATM phosphorylation (ATM phosphorylation; HeLa/HMGA2 cells) was “no ATM phosphorylation was observed”, the “sensitivity, HepG2 and Hep3B versus CL48” value [2] was “greater sensitivity to both Dox and cisplatin than HMGA2-underexpressing CL48 cells” and the “induction of H2AX phosphorylation” value (H2AX phosphorylation [3]) was “ablation of Dox-mediated induction of phosphorylation”. The H2AX phosphorylation (H2AX phosphorylation [4]; HCC1419 cells) was “induced H2AX phosphorylation”, the H2AX phosphorylation (H2AX phosphorylation [4]; HS578T cells) was “no increase in H2AX phosphorylation following Dox treatment” and the “difference in decrease of viability between Pa-4/HMGA2 and Pa-4 cells” value ([5]; 72 hours) was “much larger in Pa-4/HMGA2 cells than it was in Pa-4 cells”. For the same compound, the “cell viability / growth inhibition” value ([5]; 72 hours after treatment) was “decreased cell viability in a dose-dependent manner in both Pa-4 and Pa-4/HMGA2 cells”, the “p53 phosphorylation at Ser-15” value ([6]; Dox, MO59J and MO59K cells) was “robust p53 phosphorylation at Ser-15” and the “Chk2 phosphorylation at Thr-68” value ([6]; MO59J cells, 2 hours post-Dox treatment) was “barely detectable”. The “induction of H2AX phosphorylation” value (H2AX phosphorylation [7]) was “delay in Dox-mediated induction of H2AX phosphorylation”, the “sensitivity to growth inhibition, HS578T versus HCC1419 and CHO” value ([8]; 72 hours) was “HS578T cells were substantially more sensitive to Dox-mediated growth inhibition than the other two cell types” and the cell viability ([8]; 72 hours after treatment) was “decreased cell viability in a dose-dependent manner in all three cell types”.
